Publication PMC10376129, “Mechanistic Understanding of Idiosyncratic Drug-Induced Hepatotoxicity Using Co-Cultures of Hepatocytes and Macrophages” (Antioxidants, 2023)
“Also recorded” adds a separate entry of the source.

B1: interferon γ (protein, UniProt P01579 24-161, looked up)
Interferon gamma: QDPYVKEAENLKKYFNAGHSDVADNGTLFLGILKNWKEESDRKIMQSQIVSFYFKLFKNFKDDQSIQKSVETIKEDMNVKFFNSNKKKRDDFEKLTNYSVTDLNVQRKAIHELIQVMAELSPAAKTGKRKRSQMLFRG
notes: cytokine used with LPS to generate M1 macrophages

Legend:
[1] = test system: HepG2 cells; assay: MTT cytotoxicity in HepG2 monocultures; type: cell-based, human; conditions: for effects on the viability: LPS and IFN-γ together, HepG2 cells, Supplementary Figure S1; for CC50: Homo sapiens, HepG2 monoculture, 24 h exposure, in presence of LPS and IFN-γ, read-out: IC50 values
Protocol: HepG2 cells (ECACC No. 85011430) were cultured in Ham’s F-12/Leibovitz L-15 (1:1 v/v), supplemented with 7% FBS, 50 U of penicillin/mL, and 50 μg of streptomycin/mL.
HepG2 cells were seeded at a density of 47,000 cells/cm^2 as a monoculture control for all the experiments.
(§1) For the toxicity studies, HepG2 cells alone or in co-culture with different proportions of M1 macrophages were seeded in 96-well plates (15,000 cells/well) and were allowed to grow and equilibrate for 24 h. Then, cells were exposed for 24 h to eight concentrations of the tested compounds (TVX, LVX, TGZ, RGZ). Each experimental condition was assayed in triplicate wells. Test compounds were diluted in DMSO, and then easily diluted in the culture medium to obtain the desired final concentrations (Table 1). The final DMSO concentration in the culture medium never exceeded 0.5% (v/v), and the control cultures were treated with the same amount of solvent.
(§2) Cytotoxicity was assessed by means of the tetrazolium reduction colorimetric assay (MTT test) as previously described in detail.

[2] = test system: HepG2 cells and co-cultures at different ratios (1:10, 1:5, and 1:2); assay: Gene expression (RT-qPCR) of oxidative stress, GSH-related and apoptotic genes in treated cultures; type: cell-based, human
Description: Total RNA was extracted using the RNeasy Plus Mini Kit (Qiagen, Madrid, Spain), and was reverse transcribed as described elsewhere. Diluted cDNA was amplified using LightCycler DNA Master SYBR Green I (Roche Applied Science, Barcelona, Spain) and the appropriate primers (Supplementary Table S2) were amplified using a LightCycler 480 Instrument (Roche Applied Science, Barcelona, Spain). For normalization, porphobilinogen deaminase (PBGD), TATA box binding protein (TBP), Large Ribosomal Subunit Protein UL10 (RPLP0), and actin were used. During each amplification, a reference calibrator cDNA, made from a pool of human livers, was included. The relative mRNA expression was calculated using the LightCycler Relative Quantification Analysis software verson 1.5.0.39. Based on PCR efficiencies and the cycle thresholds, the relative concentration of the target and reference cDNAs and their ratio were determined. Additionally, gene expression analysis of test systems alone or treated with the selected toxic compounds was also performed as indicated in Section 2.3.2. For toxicotranscriptomics studies, cells were seeded in P12-well plates at a density of 47,000 cells/cm^2.

[3] = test system: co-cultures of HepG2 and M1-THP-1 cells; assay: MTT cytotoxicity in direct co-cultures of HepG2 and M1-THP-1 macrophages; type: cell-based; conditions: Homo sapiens, HepG2, 24 h, 24 h exposure
Protocol: (§3) THP-1 cells were differentiated to macrophages via incubation with phorbol-12-myrsitate 13-acetate (PMA, 20 or 50 ng/mL) for 72 h. After differentiation, THP-1 cells became adherent with typical macrophage morphology. To generate M1 macrophages, cells were then stimulated with LPS (1 µg/mL) in the presence or absence of interferon γ (IFN-γ) (20 ng/mL) as described in Figure 1.
For subculturing purposes, cells (HepG2 or THP-1) were detached via treatment with 0.25% trypsin/0.02% EDTA at 37 °C. In order to determine the effect of pro-inflammatory macrophages on HepG2 cells, different co-culture conditions were tested. Co-culture proportions were 1:10, 1:5, and 1:2 (M1:HepG2), respectively. Cells were seeded at 47,000 cells/cm^2 per condition and co-culture media consisted of HepG2 and M1-THP-1 cell culture media (1:1). The schedule followed for co-culturing HepG2 cells and M1-THP-1 macrophages is exemplified in Figure 2.
as §1, §2

[4] = test system: HepG2 monocultures and different co-cultures of HepG2 and M1-THP-1 cells; assay: Concentration-dependent toxicity compared across test systems (MTT viability); type: cell-based; conditions: 24 h exposure; for concentrations producing significant cell death / decrease in viability: Figure 6; for effect on viability in co-cultures compared to monocultures of HepG2 cells: co-culture ratios 1:10, 1:5, 1:2
Protocol: as §1, §2
Data represent triplicate measurements and are expressed as the mean ± SD. Student’s t-test was used for statistical evaluations between two groups, whereas one-way ANOVA followed by Tukey’s multiple comparisons test was used when comparing 3 or more groups. The level of significance was chosen as p < 0.05 and calculated using GraphPad Prism v. 8.4.3.

[5] = parameters: method as in PMID 18524759; conditions: cited from earlier work
[6] = test system: THP-1 cells; assay: Viability of THP-1 cells after differentiation to pro-inflammatory macrophages; type: cell-based, human; conditions: PMA 50 ng/mL for differentiation followed by LPS and IFN-γ
Protocol: as §3

[7] = 100 µM, compared to non-treated cells

| Molecule | effects on the viability [1] | mRNA levels of Nfr2 pathway, GSH-related enzymes and apoptotic genes [2, 7] | IC50 ([3]; Co-culture 1.10 (M1:HepG2)) | IC50 ([3]; Co-culture 1.2 (M1:HepG2)) | IC50 ([3]; Co-culture 1.5 (M1:HepG2)) | concentrations producing significant cell death / decrease in viability [4] | effect on viability in co-cultures compared to monocultures of HepG2 cells [4] | CC50 [1] | Cmax [5] | mRNA levels of Nfr2 pathway, GSH-related enzymes and apoptotic genes ([2]; 25 µM, 24 h, compared to non-treated cultures) | mRNA levels of Nfr2 pathway, GSH-related enzymes and apoptotic genes ([2]; 25 µM, 24 h, compared to non-treated cultures, listed as TVX) | viability after differentiation [6] |
| --- | --- | --- | --- | --- | --- | --- | --- | --- | --- | --- | --- | --- |
| lipopolysaccharide [LPS] | No significant effects on the viability | – | – | – | – | – | – | – | – | – | – | – |
| Cc1c(C)c2c(c(C)c1O)CCC(C)(COc1ccc(CC3SC(=O)NC3=O)cc1)O2 (stereo not drawn) [Troglitazone] | – | increased the GCLM, DDIT, and TXNRD1 levels and reduced the GSTA2, GSTA4, GSTT1, and GPX2 levels | 208 µM | 188 µM | 203 µM | higher than 100 µM | decrease in the viability was more significant in the co-cultures at the highest ratios of M1 cells | 223 µM | – | – | – | – |
| C[C@H]1COc2c(N3CCN(C)CC3)c(F)cc3c(=O)c(C(=O)O)cn1c23 [Levofloxacin] | – | – | > 800 µM | > 800 µM | > 800 µM | > 750 µM | no synergic effect was observed | > 800 µM | 15.7 µM | did not significantly change the gene expression | – | – |
| CN(CCOc1ccc(CC2SC(=O)NC2=O)cc1)c1ccccn1 (stereo not drawn) [Rosiglitazone] | – | produced increases in the expression of GCLM, TXNRD1, and DDIT | > 250 µM | > 250 µM | > 250 µM | higher than 200 µM | no significant differences between the test systems were found | > 250 µM | – | – | – | – |
| N[C@@H]1[C@H]2CN(c3nc4c(cc3F)c(=O)c(C(=O)O)cn4-c3ccc(F)cc3F)C[C@@H]12 [Trovafloxacin] | – | – | 531 µM | 74 µM | 529 µM | higher than 50 µM | A synergistic effect was detected in the co-cultures | 675 µM | 4.1 µM | – | reduced the GSTT1, GSTT2, GSTA2, GSTA4, NNQO1, GPX1, GPX2, and GPX4 levels in all the culture conditions; also recorded: Increased levels of AT4 and SOD2 | – |
| CCCCCCCCCCCCCC(=O)O[C@@H]1[C@@H](C)[C@@]2(O)[C@@H](C=C(CO)C[C@]3(O)C(=O)C(C)=C[C@@H]23)[C@@H]2C(C)(C)[C@]12OC(C)=O [PMA, phorbol-12-myrsitate 13-acetate] | – | – | – | – | – | – | – | – | – | – | – | 79 ± 5 |
| B1 | No significant effects on the viability | – | – | – | – | – | – | – | – | – | – | – |
